According to PubChem BioAssay AID248 (DTP/NCI, 2004):
“And” between values parts separate entries of the source, which are not always exact repeats. Equal entries are not always repeated. Inconclusive results and toxic doses are left out. Cut-off read from the data, not from the text of the source: active = T/C of 150% or more; inactive = T/C below 125%.

Tested on: L1210 leukemia ip in BDF1 mice, survival T/C
Assay: NCI In Vivo Anticancer Drug Screen. Data for tumor model L1210 Leukemia (intraperitoneal) in B6D2F1 (BDF1) mice
Details: endpoint: mean survival time, higher = longer survival
Summary of the method: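 Antitumor effect is assessed in tumor-bearing animals. Survival in the compound arm is compared with a vehicle-dosed control arm and expressed as their quotient.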

[1] = dose: 100.0 mg/kg/injection, schedule: Q04DX002 (ip), vehicle: Klucel (hydroxypropylcellulose) (HPC)
[2] = dose: 50.0 mg/kg/injection, schedule: Q01DX009 (ip), vehicle: saline with Tween-80
[3] = dose: 100.0 mg/kg/injection, schedule: Q01DX009 (ip), vehicle: saline with Tween-80

Measured: T/C

COc1cccc2c1C(=O)c1c(O)c3c(c(O)c1C2=O)CC(O)(C(C)=O)CC3O (centres undefined)
inactive: dose: 0.16 mg/kg/injection, schedule: Q01DX009 (ip), vehicle: saline with Tween-80 103 % of control | dose: 0.16 mg/kg/injection, schedule: Q03HX008 (ip), vehicle: saline with Tween-80 100 % of control | dose: 0.32 mg/kg/injection, schedule: Q01DX009 (ip), vehicle: saline with Tween-80 90 % of control | dose: 0.32 mg/kg/injection, schedule: Q03HX008 (ip), vehicle: saline with Tween-80 97 % of control | dose: 0.63 mg/kg/injection, schedule: Q01DX009 (ip), vehicle: saline with Tween-80 99 % of control | dose: 0.63 mg/kg/injection, schedule: Q03HX008 (ip), vehicle: saline with Tween-80 100 % of control | dose: 1.25 mg/kg/injection, schedule: Q01DX009 (ip), vehicle: saline with Tween-80 94 % of control | dose: 1.25 mg/kg/injection, schedule: Q03HX008 (ip), vehicle: saline with Tween-80 95 % of control | dose: 2.5 mg/kg/injection, schedule: Q01DX009 (ip), vehicle: saline with Tween-80 91 % of control | dose: 2.5 mg/kg/injection, schedule: Q03HX008 (ip), vehicle: saline with Tween-80 95 % of control | dose: 5.0 mg/kg/injection, schedule: Q01DX001 (ip), vehicle: saline 102 % of control | dose: 5.0 mg/kg/injection, schedule: Q01DX009 (ip), vehicle: saline with Tween-80 101 % of control | dose: 5.0 mg/kg/injection, schedule: Q03HX008 (ip), vehicle: saline with Tween-80 97 % of control | dose: 10.0 mg/kg/injection, schedule: Q01DX001 (ip), vehicle: saline 94 % of control | dose: 10.0 mg/kg/injection, schedule: Q01DX009 (ip), vehicle: saline with Tween-80 100 % of control | dose: 10.0 mg/kg/injection, schedule: Q03HX008 (ip), vehicle: saline with Tween-80 90 % of control | dose: 20.0 mg/kg/injection, schedule: Q01DX001 (ip), vehicle: saline with Tween-80 100 % of control | dose: 20.0 mg/kg/injection, schedule: Q01DX001 (ip), vehicle: saline 105 % of control | dose: 20.0 mg/kg/injection, schedule: Q04DX003 (ip), vehicle: saline with Tween-80 96 % of control | dose: 40.0 mg/kg/injection, schedule: Q01DX001 (ip), vehicle: saline with Tween-80 100 % of control | dose: 40.0 mg/kg/injection, schedule: Q01DX001 (ip), vehicle: saline 105 % of control | dose: 40.0 mg/kg/injection, schedule: Q04DX003 (ip), vehicle: saline with Tween-80 103 % of control | dose: 80.0 mg/kg/injection, schedule: Q01DX001 (ip), vehicle: saline with Tween-80 102 % of control | dose: 80.0 mg/kg/injection, schedule: Q04DX003 (ip), vehicle: saline with Tween-80 102 % of control | dose: 160.0 mg/kg/injection, schedule: Q01DX001 (ip), vehicle: saline with Tween-80 105 % of control | dose: 160.0 mg/kg/injection, schedule: Q04DX003 (ip), vehicle: saline with Tween-80 103 % of control

NC(=O)Oc1c(Cl)cc(Cl)c(Cl)c1[N+](=O)[O-]
inactive: dose: 25.0 mg/kg/injection, schedule: Q04DX002 (ip), vehicle: Klucel (hydroxypropylcellulose) (HPC) 97 % of control | dose: 50.0 mg/kg/injection, schedule: Q04DX002 (ip), vehicle: Klucel (hydroxypropylcellulose) (HPC) 104 % of control | [1] 97 % of control

[Cl][Co][Cl].[NH-]CCN1CC1
inactive: dose: 100.0 mg/kg/injection, schedule: Q04DX003 (ip), vehicle: saline 90 % of control

COc1cc(O)c(/C=N\N=C\c2ccco2)c(OC)c1
inactive: dose: 75.0 mg/kg/injection, schedule: Q01DX001 (ip), vehicle: saline 90 % of control | dose: 150.0 mg/kg/injection, schedule: Q01DX001 (ip), vehicle: saline 90 % of control | dose: 300.0 mg/kg/injection, schedule: Q01DX001 (ip), vehicle: saline 86 % of control

CN(C)CCOC(=O)c1cc(CCBr)cc(CCBr)c1
inactive: dose: 2.5 mg/kg/injection, schedule: Q01DX009 (ip), vehicle: saline 92 % of control | dose: 5.0 mg/kg/injection, schedule: Q01DX009 (ip), vehicle: saline 97 % of control | dose: 10.0 mg/kg/injection, schedule: Q01DX009 (ip), vehicle: Klucel (hydroxypropylcellulose) (HPC) 95 % of control | dose: 10.0 mg/kg/injection, schedule: Q01DX009 (ip), vehicle: saline 94 % of control

Cc1cccc(Cl)c1NC(=O)C(C)N1CCCC1 (centres undefined)
inactive: dose: 12.5 mg/kg/injection, schedule: Q01DX009 (ip), vehicle: saline 101 % of control | dose: 25.0 mg/kg/injection, schedule: Q01DX009 (ip), vehicle: saline 98 % of control | dose: 50.0 mg/kg/injection, schedule: Q01DX009 (ip), vehicle: saline 93 % of control

COC1c2ccccc2C=CN1c1ccc([N+](=O)[O-])cc1[N+](=O)[O-] (centres undefined)
inactive: dose: 100.0 mg/kg/injection, schedule: Q04DX003 (ip), vehicle: Klucel (hydroxypropylcellulose) (HPC) 110 % of control | dose: 200.0 mg/kg/injection, schedule: Q04DX003 (ip), vehicle: Klucel (hydroxypropylcellulose) (HPC) 104 % of control | dose: 400.0 mg/kg/injection, schedule: Q04DX003 (ip), vehicle: Klucel (hydroxypropylcellulose) (HPC) 108 % of control

Cc1cc(O)c([N+](=O)[O-])c(=O)o1 (tested in a mixture with another compound)
inactive: [1] 108 % of control | dose: 200.0 mg/kg/injection, schedule: Q04DX002 (ip), vehicle: Klucel (hydroxypropylcellulose) (HPC) 97 % of control | dose: 400.0 mg/kg/injection, schedule: Q04DX002 (ip), vehicle: Klucel (hydroxypropylcellulose) (HPC) 87 % of control

CCOC(=O)CNS(=O)(=O)c1ccccc1
inactive: dose: 100.0 mg/kg/injection, schedule: Q01DX001 (ip), vehicle: saline 98 % of control | dose: 200.0 mg/kg/injection, schedule: Q01DX001 (ip), vehicle: saline 101 % of control | dose: 400.0 mg/kg/injection, schedule: Q01DX001 (ip), vehicle: saline 101 % of control

O=C(Nc1cccc(C(=O)O)c1)Nc1cccc(Cl)c1Cl
inactive: dose: 100.0 mg/kg/injection, schedule: Q01DX009 (ip), vehicle: Klucel (hydroxypropylcellulose) (HPC) 98 % of control | dose: 200.0 mg/kg/injection, schedule: Q01DX009 (ip), vehicle: Klucel (hydroxypropylcellulose) (HPC) 95 % of control | dose: 400.0 mg/kg/injection, schedule: Q01DX009 (ip), vehicle: Klucel (hydroxypropylcellulose) (HPC) 105 % of control

C=C(Br)CNC(=O)CCC
inactive: dose: 5.0 mg/kg/injection, schedule: Q04DX003 (ip), vehicle: saline 92 % of control | dose: 10.0 mg/kg/injection, schedule: Q04DX003 (ip), vehicle: saline 97 % of control

OC1c2ccccc2-c2ccc(Cl)cc21 (centres undefined)
inactive: dose: 25.0 mg/kg/injection, schedule: Q01DX009 (ip), vehicle: saline with Tween-80 97 % of control | [2] 106 % of control | [3] 100 % of control and 90 % of control

O=c1[nH]c(=O)c2nccnc2[nH]1
inactive: dose: 25.0 mg/kg/injection, schedule: Q01DX009 (ip), vehicle: water 109 % of control | dose: 50.0 mg/kg/injection, schedule: Q01DX009 (ip), vehicle: water 111 % of control | dose: 100.0 mg/kg/injection, schedule: Q01DX009 (ip), vehicle: water 104 % of control | dose: 200.0 mg/kg/injection, schedule: Q01DX009 (ip), vehicle: water 101 % of control

NCc1c(Cl)c(Cl)c(Cl)c(CN)c1Cl
inactive: dose: 50.0 mg/kg/injection, schedule: Q01DX001 (ip), vehicle: carboxymethylcellulose (CMC) 89 % of control | [2] 97 % of control | dose: 100.0 mg/kg/injection, schedule: Q01DX001 (ip), vehicle: carboxymethylcellulose (CMC) 94 % of control | [3] 102 % of control | dose: 200.0 mg/kg/injection, schedule: Q01DX009 (ip), vehicle: saline with Tween-80 93 % of control

CCOC(=O)CC1=C(c2ccc(OC)cc2)c2ccc(OC)cc2C1=O
inactive: dose: 50.0 mg/kg/injection, schedule: Q01DX001 (ip), vehicle: Klucel (hydroxypropylcellulose) (HPC) 98 % of control | dose: 100.0 mg/kg/injection, schedule: Q01DX001 (ip), vehicle: Klucel (hydroxypropylcellulose) (HPC) 98 % of control | dose: 200.0 mg/kg/injection, schedule: Q01DX001 (ip), vehicle: Klucel (hydroxypropylcellulose) (HPC) 95 % of control
